Assay [1] has as its system 5637 cell-derived tumor xenograft. As to the kind of experiment: 5637-derived tumor xenografts in nude mice, tumor weight day 25. The format is in vivo, BALB/c male nude mice. Particulars: 5637 tumors, Pa 45 ug/mouse intraperitoneal once in 2 days. An excerpt: (§1) Animal experiments were undertaken in accordance with the National Institutes of Health Guide for the Care and Use of Laboratory Animals. BALB/c male nude mice aged of 8-12 weeks were used for this study. 5637 or H-bc cells were embedded in BD Matrigel Matrix (Becton, Dickinson, Franklin Lakes, N.J., USA) and subcutaneously injected into the four sites at the back of mice as following: 1.7×10^7 cells/site for 5637, 0.7×10^7 cells/site for H-bc, 4 sites/mouse, 6 mice for 5637, 6 mice for H-bc, respectively. From the fourth day after cell injection, all 5637-generated tumors were intratumorally injected with 2 nM miR-193a-3p agomiR or miR-193a-5p agomiR, while H-bc-generated tumors were injected with 4 nM miR-193a-3p/-5p/Mock antagomiR/PBS in a similar manner. From the sixth day after cell injection, three mice from 5637 and three from H-bc intraperitoneally received Pa (45 ug/mouse) once in 2 days. The remaining six mice (three from 5637 and three from H-bc) received PBS as a mock treatment control. Mice were humanely killed on day 25, and the tumors were weighed and photographed. The tumor weight was described as the mean±S.D.
(§2) Animal experiments were undertaken in accordance with the National Institutes of Health Guide for the Care and Use of Laboratory Animals. BALB/c male nude mice of 8-12 weeks of age were used for this study. […]

For assay [2], the system named is H-bc-derived tumor xenografts. The assay is described as follows: H-bc-derived tumor xenografts in nude mice, tumor weight day 25. In kind it is in vivo, BALB/c male nude mice. Particulars: H-bc tumors, Pa 45 ug/mouse intraperitoneal once in 2 days.
Description: as §1, §2

Molecules are shown by their SMILES.

As for `CC(=O)O[C@H]1C(=O)[C@@]2(C)[C@H]([C@H](OC(=O)c3ccccc3)[C@]3(O)C[C@H](OC(=O)[C@H](O)[C@@H](NC(=O)c4ccccc4)c4ccccc4)C(C)=C1C3(C)C)[C@]1(OC(C)=O)CO[C@@H]1C[C@@H]2O` [Pacilitaxol, Paclitaxel], the “tumor weight ratio of the Pa treated over PBS treated” value stood at 0.283 in assay [1] and 0.40 in assay [2].

For the origin of these results see patent publication US10011877B2, “Treatment of bladder cancer to overcome chemoresistance” (Genedia Biotech Co., Ltd., priority 2015, dated 2018).
